pIC50: −log10 of the molar value. Each block holds one molecule with its values, some of them ahead of it.
Assays:
Plasmodium falciparum [1] = assay: Antimalarial activity against blood stage forms of Plasmodium falciparum 3D7 infected in human erythrocytes; type: functional, organism-based
[2] = Inhibition of Plasmodium falciparum recombinant NDH2 expressed in Escherichia coli F571 using decyclubiquinone as substrate at 1 min by spectrophotometry
Plasmodium berghei [3] = assay: Antimalarial activity against Plasmodium berghei NS infected in CD1 mouse assessed as decrease in parasitemia at 20 mg/kg, po administered using Na2CO3 as vehicle measured on day 4; type: functional; parameters: scale not given: the % may be the effect or the level left
[4] = Cmax in rat at 20 mg/kg, po; type: ADME, organism-based; parameters: dose 20 mg/kg, route oral; conditions: in vivo
[5] = Tmax in rat at 20 mg/kg, po; type: ADME, organism-based; parameters: dose 20 mg/kg, route oral; conditions: in vivo
Rattus norvegicus = assay: Volume of distribution in rat at 20 mg/kg, po; type: ADME, organism-based; parameters: dose 20 mg/kg, route oral; conditions: in vivo
[6] = Total clearance in rat at 20 mg/kg, po; type: ADME, organism-based; parameters: dose 20 mg/kg, route oral; conditions: in vivo
[7] = AUC (0 to t) in rat at 20 mg/kg, po; type: ADME, organism-based; parameters: dose 20 mg/kg, route oral; conditions: plasma
[8] = Half life in rat at 20 mg/kg, po; type: ADME, organism-based; parameters: dose 20 mg/kg, route oral; conditions: in vivo
Plasmodium berghei [9] = assay: Antimalarial activity against Plasmodium berghei NS infected in CD1 mouse assessed as decrease in parasitemia at 20 mg/kg, po administered using SSV as vehicle measured on day 4; type: functional; parameters: scale not given: the % may be the effect or the level left
Plasmodium berghei [10] = assay: Antimalarial activity against Plasmodium berghei NS infected in po dosed CD1 mouse assessed as decrease in parasitemia measured on day 4; type: functional; conditions: 96 h
Plasmodium falciparum [11] = assay: Antimalarial activity against […]-resistant Plasmodium falciparum TM90C2B containing cytochrome-b Y268S mutant; type: functional, organism-based
HepG2 = assay: Cytotoxicity against human HepG2 cells; type: cell-based
Plasmodium berghei [12] = assay: Antimalarial activity against Plasmodium berghei NS infected in CD1 mouse assessed as decrease in parasitemia at 20 mg/kg, po administered using DET as vehicle measured on day 4; type: functional; parameters: scale not given: the % may be the effect or the level left
Liver microsomes = assay: Half life in human liver microsomes at 1 uM; type: ADME, Microsome
[13] = Metabolic stability in human liver microsomes assessed as compound remaining at 1 uM after 60 mins; type: ADME, Microsome; conditions: read-out: Stability
Plasmodium falciparum [14] = assay: Antimalarial activity against chloroquine-resistant Plasmodium falciparum W2; type: functional, organism-based
[15] = Inhibition of Plasmodium falciparum cytochrome b-c1 complex using decylubiquinol as substrate by spectrophotometry

Structure (SMILES): COc1ccc2[nH]c(-c3ccc(-c4ccc(OC(F)(F)F)cc4)nc3)c(C)c(=O)c2c1
- pIC50 (Plasmodium falciparum [1]): < 6.00

Structure (SMILES): Cc1c(-c2ccc(-c3ccc(OC(F)(F)F)cc3)nc2)nc2ccccc2c1OP(=O)(O)O
- Activity (Plasmodium berghei [3]): 100%

Structure (SMILES): Cc1c(-c2ccc(-c3ccc(OC(F)(F)F)cc3)nc2)nc2ccccc2c1OC(=O)N1CCOCC1
- Cmax [4]: 8100 ng/mL
- Tmax [5]: 7 h
- Vd (Rattus norvegicus): 2875.6 mL/kg
- CL/F [6]: 1.63 mL/min/kg
- AUC(0-t) [7]: 167 µg·h/mL
- half-life [8]: 1220 min
- Activity (Plasmodium berghei [9]): 100%

Structure (SMILES): Cc1c(-c2ccc(-c3ccc(OC(F)(F)F)cc3)nc2)[nH]c2ccccc2c1=O
- ED50 (Plasmodium berghei [10]): 12.8 mg/kg
- ED90 (Plasmodium berghei [10]): 27.3 mg/kg
- pIC50 [2]: 7.82
- pIC50 (Plasmodium falciparum [11]): 6.46
- CC50 (HepG2): > 50 µM
- Activity (Plasmodium berghei [12]): 100%
- Cmax [4]: 3700 ng/mL
- Tmax [5]: 7 h
- t1/2 (Liver microsomes): 96.7 min
- remaining at 1 h, 1 µM [13]: 60%
- Vd (Rattus norvegicus): 3970.8 mL/kg
- pIC50 (Plasmodium falciparum [1]): 7.27
- pIC50 (Plasmodium falciparum [14]): 7.30
- pIC50 [15]: 7.82
- CL/F [6]: 4.61 mL/min/kg
- AUC(0-t) [7]: 69.3 µg·h/mL
- half-life [8]: 594 min
- Activity (Plasmodium berghei [9]): 87.5%

Structure (SMILES): Cc1c(-c2ccc(Oc3ccc(OC(F)(F)F)cc3)nc2)[nH]c2ccccc2c1=O
- pIC50 [2]: 6.96
- pIC50 (Plasmodium falciparum [1]): 7.40
- pIC50 (Plasmodium falciparum [14]): 7.30

Structure (SMILES): COc1cccc2c(=O)c(C)c(-c3ccc(-c4ccc(OC(F)(F)F)cc4)nc3)[nH]c12
- pIC50 (Plasmodium falciparum [1]): < 6.00

Structure (SMILES): Cc1c(-c2ccc(-c3ccc(OC(F)(F)F)cc3)nc2)[nH]c2cc(Cl)ccc2c1=O
- pIC50 (Plasmodium falciparum [1]): 6.43

Structure (SMILES): Cc1c(-c2ccc(-c3ccc(OC(F)(F)F)cc3)nc2)[nH]c2cc(F)c(F)cc2c1=O
- pIC50 (Plasmodium falciparum [1]): 6.46

Structure (SMILES): Cc1c(-c2ccc(CN3CCN(Cc4ccc(OC(F)(F)F)cc4)CC3)nc2)[nH]c2ccccc2c1=O
- pIC50 (Plasmodium falciparum [1]): 6.17

Structure (SMILES): Cc1c(-c2ccc(OCCN3CCN(C)CC3)cc2)[nH]c2ccccc2c1=O
- pIC50 (Plasmodium falciparum [1]): < 6.00

Structure (SMILES): Cc1c(-c2ccc(-c3cccc(OCCN4CCOCC4)c3)nc2)[nH]c2ccccc2c1=O
- pIC50 (Plasmodium falciparum [1]): < 6.00

Structure (SMILES): Cc1c(-c2ccc(Cc3ccc(C(F)(F)F)nc3)cc2F)[nH]c2ccccc2c1=O
- pIC50 (Plasmodium falciparum [1]): 6.87
- pIC50 (Plasmodium falciparum [14]): 7.17

Structure (SMILES): Cc1c(-c2ccc(-c3ccc(OC(F)(F)F)cc3)nc2)[nH]c2cc(O)ccc2c1=O
- pIC50 (Plasmodium falciparum [1]): 6.69

Structure (SMILES): CO[C@H]1O[C@@H]2O[C@@]3(C)CC[C@H]4[C@H](C)CC[C@@H]([C@H]1C)[C@@]24OO3
- ED50 (Plasmodium berghei [10]): 3.1 mg/kg
- ED90 (Plasmodium berghei [10]): 5.8 mg/kg

Structure (SMILES): Cc1c(-c2ccc(OCCN3CCOCC3)cc2)[nH]c2ccccc2c1=O
- pIC50 (Plasmodium falciparum [1]): < 6.00

Structure (SMILES): Cc1c(-c2ccc(-c3ccc(OC(F)(F)F)cc3)nc2)[nH]c2cc(S(C)(=O)=O)ccc2c1=O
- pIC50 (Plasmodium falciparum [1]): < 6.00

Structure (SMILES): Cc1c(-c2ccc(-c3ccc(OC(F)(F)F)cc3)nc2)[nH]c2ccc(O)cc2c1=O
- pIC50 (Plasmodium falciparum [1]): 6.55

Structure (SMILES): Cc1c(-c2ccc(-c3ccc(OC(F)(F)F)cc3)nc2)[nH]c2cc(F)ccc2c1=O
- pIC50 [2]: 8.38
- pIC50 (Plasmodium falciparum [1]): 7.12
- pIC50 (Plasmodium falciparum [14]): 7.15
- pIC50 [15]: 7.57

Structure (SMILES): Cc1c(-c2ccc(-c3ccc(OC(F)(F)F)cc3)nc2)[nH]c2cc(C(F)(F)F)ccc2c1=O
- pIC50 (Plasmodium falciparum [1]): < 6.00

Next, values leading:

- pIC50 (Plasmodium falciparum [1]): < 6.00
Structure (SMILES): Cc1c(-c2ccc(-c3cccc(O)c3)nc2)[nH]c2ccccc2c1=O

- pIC50 (Plasmodium falciparum [1]): < 6.00
Structure (SMILES): Cc1c(-c2ccc(OCCn3ccnc3)cc2)[nH]c2ccccc2c1=O

- pIC50 [2]: 6.23
- pIC50 (Plasmodium falciparum [1]): 6.55
Structure (SMILES): Cc1c(-c2ccc(Oc3ccc(F)cc3)nc2)[nH]c2ccccc2c1=O

- pIC50 (Plasmodium falciparum [1]): < 6.00
Structure (SMILES): Cc1c(-c2ccc(-c3ccc(O)cc3)nc2)[nH]c2ccccc2c1=O

- pIC50 (Plasmodium falciparum [1]): < 6.00
Structure (SMILES): Cc1c(-c2ccc(OCCN3CCCC3)cc2)[nH]c2ccccc2c1=O

- pIC50 (Plasmodium falciparum [1]): < 6.00
Structure (SMILES): Cc1c(-c2ccc(-c3ccc(CN4CCOCC4)cc3)nc2)[nH]c2ccccc2c1=O

- pIC50 (Plasmodium falciparum [1]): 6.25
Structure (SMILES): COc1cccc(-c2ccc(-c3[nH]c4ccccc4c(=O)c3C)cn2)c1

- pIC50 (Plasmodium falciparum [1]): 6.33
Structure (SMILES): Cc1c(-c2ccc(-c3ccccc3F)cc2)[nH]c2ccccc2c1=O

- pIC50 [2]: 7.05
- pIC50 (Plasmodium falciparum [1]): 6.66
Structure (SMILES): Cc1c(-c2ccc(-c3ccc(F)cc3F)nc2)[nH]c2ccccc2c1=O

- pIC50 (Plasmodium falciparum [1]): 6.03
Structure (SMILES): Cc1c(-c2c(F)cc(-c3ccc(OC(F)(F)F)cc3)cc2F)[nH]c2ccccc2c1=O

- pIC50 (Plasmodium falciparum [1]): < 6.00
Structure (SMILES): Cc1c(-c2ccc(-c3cnn(CCN4CCOCC4)c3)cc2)[nH]c2ccccc2c1=O

- pIC50 [2]: 8.09
- pIC50 (Plasmodium falciparum [1]): 7.02
Structure (SMILES): Cc1c(-c2ccc(-c3ccccc3C(F)(F)F)cc2)[nH]c2ccccc2c1=O

- pIC50 (Plasmodium falciparum [1]): 6.67
Structure (SMILES): Cc1c(-c2ccc(-c3ccc(F)cc3F)cc2)[nH]c2ccccc2c1=O

- pIC50 (Plasmodium falciparum [1]): < 6.00
Structure (SMILES): Cc1c(-c2ccc(-c3cnn(CCN4CCCCC4)c3)cc2)[nH]c2ccccc2c1=O

From ChEMBL document CHEMBL2029230, “Identification, design and biological evaluation of heterocyclic quinolones targeting Plasmodium falciparum type II NADH:quinone oxidoreductase (PfNDH2)” (J Med Chem, 2012)
